What was measured:
lean mice = details: mouse, in vivo, ip
Experimental: Six-week-old SPF-grade C57BL/6 mice (purchased from Hubei Provincial Center for Disease Control and Prevention) are fed in SPF animal house at a room temperature of 22° C., 4 mice per cage. Animals are fed with common diets (purchased) for 2 consecutive weeks. Mice are free to take food and the padding is changed every two days, and the body weights and blood glucose are monitored every week. When the body weight is greater than 22 g, the administration is started. The drug is dissolved in DMSO solvent and administered by intraperitoneal injection. The injection volume is 25 μL per day. In addition, a vehicle and positive drug control are established. The food intake and body weight changes of mice in each group are measured every day. On Days 1 and 21, the blood routine and blood biochemical parameters are monitored. At the same time, the glucose tolerance test (GTT) and insulin tolerance test (ITT) are carried out.

mildly obese mice = experiment: GA-03 in mildly obese mouse model, intraperitoneal; type: in vivo, C57BL/6 mice; details: intraperitoneal injection
Experimental: Animals are fed with common diets (purchased) for 14 consecutive weeks. […] When the body weight is greater than 30 g, the administration is started. […] The injection volume is 25 μL per day.

[1] = test system: high-fat-induced obese mice; experiment: GA-03 in high-fat-induced obese mouse model, intraperitoneal; type: in vivo, C57BL/6 mice
Experimental: Animals are fed with 60% calorie high-fat diets (purchased from Bio-medicine) for 14 consecutive weeks. […] When the blood glucose is greater than 11 mmol/L and the body weight is greater than 42 g, the administration is started. […] The injection volume is […]. In addition, a vehicle (25 μL DMSO) is established. […] Mice in the blank group and GA-02 treatment group underwent pathological anatomy, to observe the changes in organs before and after administration. Samples are taken to prepare pathological sections.
The model is constructed by feeding high-fat diets to C57BL/6 male mice for 14 weeks, as shown in FIGS. 22A-22D, obese model mice with a body weight greater than 42 g and blood glucose level higher than 11 mmol/L. Model mice are grouped by blood glucose and body weight. […]

[2] = test system: ICAM-1 expression in HMEC-1 cells; experiment: LPS-induced ICAM-1 expression in HMEC-1 cells, flow cytometry; type: cell-based, human
Experimental: (3) Screening candidate molecules with the strongest ICAM-1 inhibitory activity by simulating the physiological model of inflammation that human microvascular endothelial cells (HMEC-1) expressing cell adhesion molecules (ICAM-1) mediate lymphocytes to penetrate blood vessels to infiltrate the damaged tissues. The specific steps are as follows:
(§1) 1) Culture of HMEC-1 cells: HMEC-1 cells are cultured in MCDB131 medium (U.S. Sigma) that contain 10% fetal bovine serum (FBS, Zhejiang Tianhang Biotechnology Co., Ltd.), double antibody (100 U/mL penicillin and 100 μg/mL streptomycin), 1 μg/mL hydrocortisone (Sangon Biotech (Shanghai) Co., Ltd.) and 10 ng/mL human recombinant growth factor (hEGF, Sangon Biotech (Shanghai) Co., Ltd.) at 37° C., 5% CO2, and 100% RH.
2) HMEC-1 cells are inoculated into a 24-well plate, and cultured in a cell incubator at 37° C., 5% CO2, and 100% RH. When the cells grow to 80% abundance, different concentrations of drugs are added for 3 h (1 μM Celastrol as a positive control drug). At the end of treatment, 1 μg/mL LPS is added to activate the NF-κB signaling pathway for 12 hours. After activation, the supernatant medium is discarded, and washed three times with PBS, and 100 μL of 0.25% pancreatin (containing 0.5 mM EDTA) is added to digest in a 37° C. incubator for 3 min. When most of cells are shed, 150 μL of MCDB131 complete medium is added to terminate the digestion, shaken for 3 min, then cells are transferred to a V-shaped 96-well plate (Corning), centrifuged at 4° C., 3000 rpm for 3 min to precipitate cells. Then the supernatant medium is discarded, 100 μL of pH=7.4 buffer A (PBS+0.5% BSA+1 mM MgCl2) is added to each well, to wash once, centrifuged at 4° C., 3000 rpm for 3 min, and the buffer A is aspirated. To each well, 100 μL of PBS solution containing 5% bovine serum albumin is added, and shaken and blocked at 120 rpm for 30 min at room temperature; after blocking, centrifuged at 4° C. and 2000 rpm for 3 min, and the supernatant is discarded, 20 μl of buffer A containing 5 μg/mL of primary antibody anti-ICAM-1 antibody LB-2, shaken and incubated at room temperature at 120 rpm for 1 h, using the buffer A without adding anti-ICAM-1 antibody LB-2 as the negative control. By detecting anti-ICAM-1 fluorescence value by flow cytometry, the expression of ICAM-1 protein in HMEC-1 cells is detected indirectly. Three duplicate wells are established for each concentration. PBS is set as a blank control, 1 uM of Celastrol is set as a positive control, to analyze the inhibitory effect of different concentrations of drugs on the expression level of ICAM-1.
as §1, with “U/ml” for “U/mL”, “μg/ml” for “μg/mL”, “Biotech)” for “Biotech (Shanghai) Co., Ltd.)”, “ng/ml” for “ng/mL”
HMEC-1 cells are inoculated into a 24-well plate, and cultured in a cell incubator at 37° C., 5% CO2, and 100% RH. When the cells grow to 80% abundance, different concentrations of drugs are added for 3 h (1 μM Celastrol as a positive control drug). At the end of treatment, 1 μg/mL LPS is added to activate the NF-κB signaling pathway for 12 hours. After activation, the supernatant medium is discarded, and washed three times with PBS, and 100 μL of 0.25% pancreatin (containing 0.5 mM EDTA) is added to digest in a 37° C. incubator for 3 min. When most of cells are shed, 150 μL of MCDB131 complete medium is added to terminate the digestion, shaken for 3 min, then cells are transferred to a V-shaped 96-well plate (Corning), centrifuged at 4° C., 3000 rpm for 3 min to precipitate cells. Then the supernatant medium is discarded, 100 μL of pH=7.4 buffer A (PBS+0.5% BSA+1 mM MgCl2) is added to each well, to wash once, centrifuged at 4° C., 3000 rpm for 3 min, and the buffer A is aspirated. […]

[3] = in vivo; cited from earlier work
mice = details: cited from earlier work
[4] = test system: NF-κB signaling in HEK293 cells; experiment: NF-κB luciferase reporter gene system; type: cell-based; details: Homo sapiens, HEK293, read-out: inhibition of the fluorescence signal (NF-κB luciferase reporter)
Experimental: FIGS. 10A-10C show the inhibition verification effect chart of GA-02 in Example 5, where FIG. 10A: GA-02 inhibited LPS-induced ICAM-1 expression activity. The inflammatory pathway of HMEC-1 cell was activated by 1 μg/mL LPS, to determine the effect of Celastrol and GA-02 on the expression of ICAM-1 induced by LPS. FIG. 10B: The effect of GA-02 on NF-κB signaling. The NF-κB luciferase reporter plasmid was used to transfect HEK293 cells, and the effects of Celastrol and GA-02 on the NF-κB activity induced by TNF-α were determined; FIG. 10C: qRT-PCR was used to detect mRNA relative expressions of IL-1β, TNF-α, IL-6 and MCP-1.
ICAM-1 is a downstream effector molecule regulated by NF-κB signaling pathway, and NF-κB plays an important role in regulating the expression of ICAM-1 gene. Celastrol can inhibit the activation of the LPS-induced IKK/NF-κB signaling pathway. In order to validate that GA-02 functions through the IKK/NF-κB signaling pathway, we constructed an NF-κB luciferase reporter gene system to validate the inhibitory activity of Celastrol and GA-02 on the luciferase reporter gene. […] In addition, both Celastrol and GA-02 could down-regulate the mRNA transcription levels of inflammatory factors IL-1β, TNF-α, IL-6 and MCP-1 activated by LPS.

normal rats = details: cited from earlier work
[5] = test system: mice with hereditary diabetes; details: cited from earlier work
[6] = high-dose (8 mg/kg) i.p., second day
[7] = high-dose (8 mg/kg) i.p., third day
[8] = low-, medium- and high-dose (2, 4, 8 mg/kg) i.p.

## 11-dicarbonyl-12-ene-2α,3β-dihydroxy-oleanane [GA-03]
Lean mice
  effect on the food intake and body weight: no effect
Mildly obese mice
  effect on appetite suppression and weight reduction: obvious effect
[1]; high dose 8 mg/kg i.p., three weeks
  body weight reduced by: 33.80±2.95%
[1]; high dose 8 mg/kg i.p., from 47.49±0.97 g
  body weight after three weeks of administration: 31.45 ± 1.81 g
[1]; high-dose (8 mg/kg) i.p.
  liver function indexes AST and ALT vs vehicle control group: significantly lower
[1]; high-dose (8 mg/kg) i.p., first day of administration, day 0: 3.14±0.40 g
  average daily food intake: 0.65 ± 0.02 g
[1]; high-dose (8 mg/kg) i.p., first day, from 47.49±0.97 g
  body weight: 46.18 ± 0.95 g
[1]; [6]
  average daily food intake: 0.57 ± 0.01 g
  body weight: 44.74 ± 0.76 g
[1]; [7]
  average daily food intake: 0.66 ± 0.06 g
  body weight: 43.13 ± 0.65 g
[1]; high-dose (8 mg/kg) i.p., three weeks
  lipid droplets in the liver (oil red O and H&E staining): completely disappeared
[1]; intraperitoneal injection, obese mice
  effect on appetite suppression and weight reduction: strong effect
[1]; low dose 2 mg/kg i.p., three weeks
  body weight reduced by: 20.40±1.89%
[1]; low dose 2 mg/kg i.p., from 47.11±1.32 g
  body weight after three weeks of administration: 37.49 ± 1.28 g
[1]; [8]
  fasting blood glucose levels: reduce to a normal level
  weights of liver and epididymal fat compared to the vehicle control group: decrease in a dose-dependent manner
[1]; low-, medium- and high-dose groups, i.p.
  blood glucose tolerance (GTT) and insulin tolerance (ITT): significantly improved
[1]; medium dose 4 mg/kg i.p., three weeks
  body weight reduced by: 27.63±3.39%
[1]; medium dose 4 mg/kg i.p., from 46.94±1.41 g
  body weight after three weeks of administration: 33.99 ± 2.30 g
[2]
  anti-inflammatory activity compared with reference compounds: basically equivalent to that of GA-02 and superior to 18β-glycyrrhetinic acid

## CC1(C)[C@@H](O)CC[C@]2(C)[C@H]3C(=O)C=C4[C@@H]5C[C@@](C)(C(=O)O)CC[C@]5(C)CC[C@@]4(C)[C@]3(C)CC[C@@H]12 [18-β-glycyrrhetinic acid, reference compound]
[2]; HMEC-1, 1 μg/mL LPS, FIG. 3
  ICAM-1 inhibitory activity among the candidate triterpene natural products: best ICAM-1 inhibitory activity

## CC1=C(O)C(=O)C=C2C1=CC=C1[C@@]2(C)CC[C@@]2(C)[C@@H]3C[C@](C)(C(=O)O)CC[C@]3(C)CC[C@]12C [Celastrol]
[3]
  bioavailability: 17.06%
mice; dose of 1 mg/kg
  toxicity to the brains, hearts and livers: serious toxicity
mice; dose of 4 mg/kg
  lethality rate: 40%
[4]
  inhibition at 1 µM: 70%

## C[C@H]1[C@H](C)CC[C@]2(C(=O)O)CC[C@]3(C)C(=CC[C@@H]4[C@@]5(C)C[C@@H](O)[C@H](O)C(C)(C)[C@@H]5CC[C@]43C)[C@H]12 [corosolic acid]
Normal rats
  blood glucose lowering: significant effect of lowering blood glucose
[5]
  blood glucose lowering: significant effect of lowering blood glucose
